The structures appear in SMILES notation.

The target in the test is T1, Glycylpeptide N-tetradecanoyltransferase (Candida albicans (strain SC5314 / ATCC MYA-2876) (Yeast), UniProt P30418).
T1 sequence (P30418 whole entry): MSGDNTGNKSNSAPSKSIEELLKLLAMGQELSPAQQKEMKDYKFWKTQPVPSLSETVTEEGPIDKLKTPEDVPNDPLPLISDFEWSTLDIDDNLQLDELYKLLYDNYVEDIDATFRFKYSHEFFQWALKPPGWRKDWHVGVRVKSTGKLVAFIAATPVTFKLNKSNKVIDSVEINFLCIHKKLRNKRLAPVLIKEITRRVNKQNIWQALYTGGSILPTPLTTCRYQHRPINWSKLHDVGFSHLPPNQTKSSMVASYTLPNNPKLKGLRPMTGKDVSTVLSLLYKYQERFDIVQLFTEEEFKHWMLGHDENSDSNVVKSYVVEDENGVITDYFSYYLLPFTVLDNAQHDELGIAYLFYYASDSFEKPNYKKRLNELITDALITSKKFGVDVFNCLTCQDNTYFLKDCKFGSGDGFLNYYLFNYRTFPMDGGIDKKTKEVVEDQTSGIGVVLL
Put plainly: Inhibition of Candida albicans N-myristoyltransferse.
What is called IC50 is the concentration that inhibits the measured activity by half. A higher IC50 goes with a need for much substance. Consider `Cc1ccc(C(=O)c2oc3cccc(OCCCNCc4cccnc4)c3c2C)nc1`, for which the IC50 turned out to be 0.39 nM. The value for `O=C(NCc1ccc(CNCc2ccc3ccccc3c2)cc1)c1ccc2nc(NC(=O)C3CCCCC3)sc2c1` was more than 10000 nM. Turning to `O=C(Nc1nc2ccc(C(=O)N3CC(NCc4ccc5ccccc5c4)C3)cc2s1)C1CCCCC1`, it took 65 nM to reach half-maximal inhibition (IC50). This lies in the double-digit nanomolar range.

Molecule `O=C(Nc1nc2ccc(C(=O)N3CCC(NCc4ccc5ccccc5c4)C3)cc2s1)C1CCCCC1` (stereo unspecified) yielded an IC50 of 190 nM.

In turn, `O=C(Nc1nc2ccc(C(=O)N3CCC(NCc4ccc5ccccc5c4)CC3)cc2s1)C1CCCCC1` gave an IC50 of 500 nM. Compared with the last molecule, the IC50 is about 2.6-fold higher.

As to `O=C(NCc1cccc(CNCc2ccc3ccccc3c2)c1)c1ccc2nc(NC(=O)C3CCCCC3)sc2c1`, the IC50 was 1900 nM. This IC50 is about 3.8-fold higher than that of the molecule before. `O=C(Nc1nc2ccc(C(=O)N3CCC(CNCc4ccc5ccccc5c4)CC3)cc2s1)C1CCCCC1` came in with an IC50 of 26 nM. The value for `O=C(Nc1nc2ccc(C(=O)N3CCCC(NCc4ccc5ccccc5c4)C3)cc2s1)C1CCCCC1` (stereo unspecified) was 210 nM. To `O=C(CNCc1ccc2ccccc2c1)Nc1ccc2nc(NC(=O)C3CCCCC3)sc2c1` belongs 2300 nM; to `O=C(NCCNCc1ccc2ccccc2c1)c1ccc2ncsc2c1`, more than 10000 nM. Regarding `Nc1nc2ccc(C(=O)NCCNCc3ccc4ccccc4c3)cc2s1`, the IC50 was more than 10000 nM. `O=C(NCCNCc1ccc2ccccc2c1)c1ccc2nc(NCc3ccccc3)sc2c1`: the IC50 is more than 10000 nM. Consider `O=C(NCCNCc1ccc2ccccc2c1)c1ccc2nc(NCc3ccccn3)sc2c1`, for which the IC50 was more than 10000 nM. The value for `O=C(NCCNCc1ccc2ccccc2c1)c1ccc2nc(NCC3CCCCC3)sc2c1` was more than 1000 nM; that for `CC(=O)Nc1nc2ccc(C(=O)NCCNCc3ccc4ccccc4c3)cc2s1` was more than 10000 nM; that for `CCC(=O)Nc1nc2ccc(C(=O)NCCNCc3ccc4ccccc4c3)cc2s1` was 130 nM.

`CC(C)C(=O)Nc1nc2ccc(C(=O)NCCNCc3ccc4ccccc4c3)cc2s1` gave an IC50 of 46 nM. Against the preceding molecule, the IC50 is about 2.8-fold lower. The value for `O=C(NCCNCc1ccc2ccccc2c1)c1ccc2nc(NC(=O)C3CCCC3)sc2c1` was 23 nM.

The molecule `O=C(NCCNCc1ccc2ccccc2c1)c1ccc2nc(NC(=O)C3CCOCC3)sc2c1` registered an IC50 of 890 nM.

As for `O=C(NCCNCc1ccc2ccccc2c1)c1ccc2nc(NC(=O)C3CCNCC3)sc2c1`, the IC50 was more than 10000 nM. To `O=C(NCCNCc1ccc2ccccc2c1)c1ccc2nc(NC(=O)c3ccccc3)sc2c1` belongs 160 nM; to `O=C(NCCNCc1ccc2ccccc2c1)c1ccc2nc(NC(=O)c3ccccn3)sc2c1`, more than 10000 nM.

The molecule `O=C(NCCNCc1ccc2ccccc2c1)c1ccc2nc(NC(=O)c3cnccn3)sc2c1` registered an IC50 of 730 nM. `O=C(NCCNCc1ccc2ccccc2c1)c1ccc2nc(NC(=O)C3CCCCC3)sc2c1`: the IC50 turned out to be 34 nM. Molecule `O=C(NCCCNCc1ccc2ccccc2c1)c1ccc2nc(NC(=O)C3CCCCC3)sc2c1` showed a 50% inhibitory concentration (IC50) of 110 nM. Against the preceding molecule, the IC50 is about 3.2-fold higher. For `O=C(NCCCCNCc1ccc2ccccc2c1)c1ccc2nc(NC(=O)C3CCCCC3)sc2c1`, the IC50 was 74 nM.

`O=C(NCCNCc1ccc2ccccc2c1)c1ccc2nc(NC(=O)c3ccc(Cl)cc3)sc2c1`: the IC50 is more than 10000 nM. The value for `O=C(NCCNCc1ccc2ccccc2c1)c1ccc2nc(NC(=O)c3ccc(Cl)c(Cl)c3)sc2c1` was more than 10000 nM; that for `O=C(NCCNCc1ccc2ccccc2c1)c1ccc2nc(NC(=O)c3ccc(C(F)(F)F)cc3)sc2c1` was more than 10000 nM. The value for `COc1ccc(OC)c(C(=O)Nc2nc3ccc(C(=O)NCCNCc4ccc5ccccc5c4)cc3s2)c1` was 310 nM; that for `O=C(CCNCc1ccc(-c2ccccc2)cc1)Nc1ccc2nc(NC(=O)C3CCCC3)sc2c1` was 160 nM. To `O=C(Nc1nc2ccc(NC(=O)[C@@H]3CC[C@H](NCc4ccc5ccccc5c4)C3)cc2s1)C1CCCC1` belongs 11 nM; to `O=C(Nc1ccc2nc(NC(=O)C3CCCC3)sc2c1)C1CCCC(NCc2ccc(-c3ccccc3)cc2)C1` (stereo unspecified), 130 nM.

Regarding `O=C(Nc1nc2ccc(NC(=O)[C@H]3CCC[C@@H](NCc4ccc5ccccc5c4)C3)cc2s1)C1CCCC1`, the IC50 stood at 0.49 nM. The value for `CC(C)C(=O)Nc1nc2ccc(NC(=O)C3CCCC(NCc4ccc5ccccc5c4)C3)cc2s1` (stereo unspecified) was 3.3 nM. Molecule `O=C(Nc1ccc2nc(NC(=O)C3CCC3)sc2c1)C1CCCC(NCc2ccc3ccccc3c2)C1` (stereo unspecified) came in with an IC50 of 2.3 nM. For `O=C(Nc1ccc2nc(NC(=O)C3CCCC3)sc2c1)C1CCC(NCc2ccc3ccccc3c2)CC1` (stereo unspecified), the IC50 is 34 nM.

In the case of `Cc1c(COc2ccc(F)c(F)c2F)oc2cccc(OCCCNCc3cccnc3)c12`, the IC50 is 5.7 nM. Compared with the last molecule, the IC50 is about 6-fold lower. Regarding `O=C(NCCNCc1ccc2ccccc2c1)c1ccc2nc(NC(=O)c3cccnc3Cl)sc2c1`, the IC50 is more than 10000 nM. To `O=C(CCCNCc1ccc2ccccc2c1)Nc1ccc2nc(NC(=O)C3CCCC3)sc2c1` belongs 15 nM; to `O=C(Nc1ccc2nc(NC(=O)C3CC3)sc2c1)C1CCCC(NCc2ccc3ccccc3c2)C1` (stereo unspecified), 2.4 nM. The molecule `O=C(Nc1ccc2nc(NC(=O)C3CCCCC3)sc2c1)C1CCCC(NCc2ccc3ccccc3c2)C1` (stereo unspecified) displayed an IC50 of 8.1 nM. Regarding `CC(C)(C)OC(=O)Nc1nc2ccc(C(=O)NCCNCc3ccc4ccccc4c3)cc2s1`, the IC50 was more than 10000 nM. The value for `O=C(NCCNCc1ccc2ccccc2c1)c1ccc2nc(NC(=O)C3CCC3)sc2c1` was 28 nM; that for `O=C(NCCCCCNCc1ccc2ccccc2c1)c1ccc2nc(NC(=O)C3CCCCC3)sc2c1` was 300 nM.

Take `CCOC(=O)c1oc2cccc(OCCCNC(C)(C)C)c2c1C`: the IC50 came out at 1700 nM.

(Values after ChEMBL document CHEMBL1140618, “3D-QSAR and molecular docking studies on benzothiazole derivatives as Candida albicans N-myristoyltransferase inhibitors” (Eur J Med Chem, 2007).)
